Assay [1] has as its target T1, hCB1 (Homo sapiens, UniProt P21554). Kind of assay: cell-based. Set-up: host or cells: CHO-K1. The procedure:
HitHunter cAMP assay: Inhibition of forskolin-stimulated cAMP was determined using the DiscoveRx HitHunter assay in hCB1R CHO-K1 cells. Cells (20,000 cells/well in low-volume 96 well plates) were incubated overnight in Opti-MEM (Invitrogen) containing 1% FBS at 37° C. and 5% CO2. Following this, Opti-MEM media was removed and replaced with cell assay buffer (DiscoveRx) and cells were co-treated at 37° C. with 10 μM forskolin and hCB1R ligands (0.10 nM-10 μM) for 30 min or 90 min cAMP antibody solution and cAMP working detection solutions were then added to cells according to the manufacturer's directions (DiscoveRx®) and cells were incubated for 60 min at room temperature. cAMP solution A was added according to the manufacturer's directions (DiscoveRx®) and cells were incubated for an additional 60 min at room temperature before chemiluminescence was measured on a Cytation 5 plate reader (top read, gain 200, integration time 10,000 ms).

In assay [2] the target is T2, CB2 (Homo sapiens, UniProt P34972). Kind of assay: cell-based. To be noted: for EC50 / Emax: CB2, agonist mode; for EC50: read-out: CB2 Agonist mode β-Arrestin EC50; for Emax: read-out: CB2 Agonist mode β-Arrestin Emax.
Assay [3] addresses T1, hCB1. Briefly: cell-based. Set-up: host or cells: CHO-K1 PathHunter. The procedure:
PathHunter CB1 β-Arrestin Assay: Chinese hamster ovary K1 (CHO-K1)-PathHunter hCB1 β-arrestin cells (DiscoveRx, Fremont, CA) were seeded at 5000 cells/well in 384-well plates 24 h before use and incubated at 37° C., 5% CO2. Compounds were dissolved in dimethyl sulfoxide (DMSO) and diluted in optimized cell culture (OCC) media. Agonist EC80 was determined directly from an agonist dose—response curve (data not shown). […] Five microliters of allosteric modulator or vehicle solution was added to each well at the appropriate concentrations and incubated for 30 min. Five microliters of agonist was then added to each well followed by a 90 min incubation. Fifteen microliters of detection reagent was then added followed by further 60 min incubation at room temperature. Chemiluminescence was measured on a standard luminescence plate reader as relative light units (RLU). Basal RLU was defined as zero. […] Data were analyzed using the fourparameter variable-slope and allosteric EC50 shift nonlinear regression equations in Prism 5.0 (GraphPad, San Diego, CA).

Assay [4] deals with T2, CB2. Briefly: cell-based. The conditions noted are these: for EC50 / Emax: CB2, agonist mode; for EC50: read-out: CB2 Agonist mode cAMP EC50; for Emax: read-out: CB2 Agonist mode cAMP Emax.
The test system of assay [5] is excitatory postsynaptic currents (EPSCs).
Assay [6] relates to normotensive C57Bl/6J mice. The conditions noted are these: 0.2% GAT1102 combined with subthreshold 0.25% WIN55,212-2, topical, at 6 and 12 hrs, n=5, P<0.05. The procedure:
(§1) Normotensive C57Bl/6J mice and Sh3pxd2b mice were obtained from Jackson Laboratory (Bar Harbor, Maine). The Sh3pxd2b mice were bred in house, and their progenies with abnormal phenotypical morphology, identified as a nee mice, were used for experiments.
(§2) Drug was administered topically (5 μl/eye) to the right eyes, while the left eyes received vehicle control (2% DMSO+4% Tween-20 in Tocrisolve; 5 μl).
(§3) Mice were anesthetized with the isoflurane (3% induction, 1.5% maintenance). The intraocular pressure (TOP) was measured with a handheld rebound tonometer (Tonolab, Icare, Finland), calibrated to mouse. Ten recordings were taken for each eye and then averaged. The IOP readings were taken at time 0 (baseline), 1, 6 and 12 hrs after the drug/vehicle administration. All the measurements were taken at the same time of the day, in order to minimize variability related to diurnal changes in IOP.
(§4) Data was analyzed by GraphPad version 6.0 (GraphPad Software, Inc., La Jolla, CA). Paired t-tests were used to compare between eyes of the same animal. A P value of <0.05 was considered significant. […] Values are represented as a change in IOP from the baseline (time 0).

The subject of assay [7] is ocular hypertensive nee mice. To be noted: GAT1102 0.2% alone, topical, at 1 and 12 hrs, n=6, P<0.05. The procedure: as §1, §2, §3, §4
Where [8] appears, read: CB1, PAM mode, read-out: CB1 PAM mode cAMP EC50.
Where [9] appears, read: CB1, agonist mode, read-out: CB1 Agonist mode cAMP EC50.
[10] abbreviates: read-out: CB1 Agonist mode cAMP Emax, CB1, agonist mode.
Setting [11] is: read-out: CB1 PAM mode cAMP Emax, CB1, PAM mode.
Where [12] appears, read: CB1, PAM mode, read-out: CB1 PAM mode β-Arrestin EC50.
The mark [13] stands for this setting: CB1, agonist mode, read-out: CB1 Agonist mode β-Arrestin EC50.
[14] abbreviates: read-out: CB1 Agonist mode β-Arrestin Emax.
[15] abbreviates: read-out: CB1 PAM mode β-Arrestin Emax.

The results in this text go back to patent US12486228B2, “N-substituted indoles and use as allosteric modulators of cannabinoid receptors” (priority 2018, dated 2025).

What is called EC50 is the concentration giving half of the maximal effect. For orientation: Emax means the greatest response seen or fitted, relative to the assay's reference.

Where two headings read alike, the source gives them in different places. Bounds are passed on as bounds.

T2 sequence (P34972 whole entry, species assumed): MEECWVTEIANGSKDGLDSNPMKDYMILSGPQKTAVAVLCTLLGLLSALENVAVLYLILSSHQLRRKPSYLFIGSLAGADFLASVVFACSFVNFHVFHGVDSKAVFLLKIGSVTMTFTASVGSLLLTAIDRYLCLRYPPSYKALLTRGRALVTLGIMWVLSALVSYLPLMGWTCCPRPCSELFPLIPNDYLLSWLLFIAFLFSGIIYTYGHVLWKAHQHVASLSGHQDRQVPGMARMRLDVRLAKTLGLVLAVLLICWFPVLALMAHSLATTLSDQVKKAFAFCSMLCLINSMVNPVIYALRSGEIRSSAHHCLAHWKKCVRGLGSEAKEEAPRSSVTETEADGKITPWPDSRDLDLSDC
T1 sequence (P21554 whole entry): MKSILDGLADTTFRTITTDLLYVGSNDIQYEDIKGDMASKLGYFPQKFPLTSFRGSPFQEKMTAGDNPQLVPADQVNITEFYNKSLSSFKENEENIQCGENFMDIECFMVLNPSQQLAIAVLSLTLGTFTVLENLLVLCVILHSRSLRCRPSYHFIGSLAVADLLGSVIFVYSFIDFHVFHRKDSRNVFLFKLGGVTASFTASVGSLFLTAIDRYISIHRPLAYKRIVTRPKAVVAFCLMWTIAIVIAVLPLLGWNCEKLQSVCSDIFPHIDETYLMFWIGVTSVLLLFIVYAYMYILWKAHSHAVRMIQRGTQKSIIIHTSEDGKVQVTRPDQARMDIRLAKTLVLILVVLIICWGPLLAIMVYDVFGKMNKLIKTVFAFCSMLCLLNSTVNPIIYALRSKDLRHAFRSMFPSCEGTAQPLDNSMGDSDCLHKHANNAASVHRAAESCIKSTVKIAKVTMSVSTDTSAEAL

`O=C(O)CC=C(c1ccccc1)c1cn(-c2ccccc2)c2ccccc12` (mixture of isomers) [Compound 16, (E and Z)-4-Phenyl-4-(1-phenyl-1H-indol-3-yl)but-3-enoic acid]: the EC50 was 0.934 µM at hCB1 [1] (setting [8]); 0.689 µM at hCB1 [1] (setting [9]); over 10 µM at CB2 [2]; over 10 µM on hCB1 [3] (setting [12]); over 10 µM on hCB1 [3] (setting [13]); 0.359 µM on CB2 [4]. Moreover, the Emax at hCB1 [1] (setting [10]) was found to be 94%; at hCB1 [1] (setting [11]), 104%; on CB2 [2], 0%; at hCB1 [3] (setting [14]), 0%; at hCB1 [3] (setting [15]), 0%; at CB2 [4] it was 80%.

On to `O=C(O)CCCCC(c1ccccc1)c1cn(-c2ccccc2)c2ccccc12` (centres unmarked) [Compound 20, 6-Phenyl-6-(1-phenyl-1H-indol-3-yl)hexanoic acid], for which the EC50 was 1.09 µM at hCB1 [1] (setting [8]); 0.355 µM on hCB1 [1] (setting [9]); over 10 µM on CB2 [2]; over 10 µM at hCB1 [3] (setting [12]); over 10 µM at hCB1 [3] (setting [13]); 0.505 µM on CB2 [4]. The Emax on hCB1 [1] (setting [10]) came out at 96%; on hCB1 [1] (setting [11]), 96%; at CB2 [2] it was 0%; at hCB1 [3] (setting [14]), 0%; on hCB1 [3] (setting [15]) it was 0%; at CB2 [4], 98%.

As for `O=C(O)CCC(c1ccccc1)c1cn(C(=O)c2ccccc2)c2ccccc12` (centres unmarked) [Compound 29, 4-(1-Penzoyl-1H-indol-3-yl)-4-phenylbutanoic acid], the 50% effective concentration (EC50) at hCB1 [1] (setting [8]) is 0.709 µM; at hCB1 [1] (setting [9]) it was 0.596 µM; at CB2 [2] it was over 10 µM; on hCB1 [3] (setting [12]), over 10 µM; at hCB1 [3] (setting [13]), over 10 µM; on CB2 [4], 0.419 µM. Further, the Emax at hCB1 [1] (setting [10]) was found to be 92%; at hCB1 [1] (setting [11]), 114%; on CB2 [2], 0%; on hCB1 [3] (setting [14]), 0%; at hCB1 [3] (setting [15]), 0%; at CB2 [4], 76%.

Consider `O=C(O)CCC(c1ccccc1)c1cn(-c2ccncc2)c2ccccc12` (centres unmarked) [Compound 23, 4-Phenyl-4-(1-(pyridin-4-yl)-1H-indol-3-yl)butanoic acid], for which the half-maximal effective concentration (EC50) at hCB1 [1] (setting [8]) was 1.06 µM; at hCB1 [1] (setting [9]), 0.357 µM; at CB2 [2], over 10 µM; on hCB1 [3] (setting [12]), over 10 µM; on hCB1 [3] (setting [13]), over 10 µM; on CB2 [4], 0.57 µM. Moreover, the Emax at hCB1 [1] (setting [10]) is 83%; at hCB1 [1] (setting [11]) it was 104%; at CB2 [2] it was 0%; on hCB1 [3] (setting [14]) it was 0%; on hCB1 [3] (setting [15]), 0%; at CB2 [4], 78%.

For the compound `O=C(O)CCC(c1ccccc1)c1cn(-c2ccccc2)c2ccccc12` (centres unmarked) [GAT1102, 4-Phenyl-4-(1-phenyl-1H-indol-3-yl)butanoic acid], the “agonist properties (direct inhibition of EPSCs)” value in assay [5] (1 μM GAT1102) is “exhibited agonist properties in some cells”. The “PAM effect on depolarization-induced suppression of excitation (DSE)” value in assay [5] (slowing recovery for DSE, in most cases occluded by direct inhibition) was “some evidence of a modest GAT1102 PAM effect”. In addition, the “IOP compared to vehicle” value in assay [6] is reported as “significantly lower”. Also, the IOP change result in assay [7] is “significantly decreased IOP”.

For the compound `CC(=O)CC(C)C(c1ccccc1)c1cn(-c2ccccc2)c2ccccc12` (centres unmarked) [Compound 42, 4-Methyl-5-phenyl-5-(1-phenyl-1H-indol-3-yl)pentan-2-one], the “CB1 PAM mode cAMP Emax” value on hCB1 [1] (CB1, PAM mode) is “(0) %”. The EC50 at hCB1 [1] (setting [8]) is over 10 µM. On hCB1 [1] (CB1, agonist mode), the “CB1 Agonist mode cAMP Emax” value was “(0) %”. Further, on CB2 [2], the “CB2 Agonist mode β-Arrestin Emax” value came out at 0% and the EC50 was over 10 µM. Besides, on hCB1 [3] (CB1, PAM mode), the “CB1 PAM mode β-Arrestin Emax” value is on record as “(0) %”. In addition, the “CB1 Agonist mode β-Arrestin Emax” value at hCB1 [3] (CB1, agonist mode) was “(0) %”. Besides, the “CB2 Agonist mode cAMP Emax” value at CB2 [4] is “(0) %”.

With `O=C(O)CCC(c1ccccc1)c1c[nH]c2ccccc12` (centres unmarked) [Compound 28, 4-(1H-Pndol-3-yl)-4-phenylbutanoic acid], the EC50 on hCB1 [1] (setting [8]) is 4.35 µM; at hCB1 [1] (setting [9]) it was 9.81 µM; on CB2 [2], over 10 µM; at hCB1 [3] (setting [12]) it was over 10 µM; on hCB1 [3] (setting [13]), over 10 µM; at CB2 [4] it was over 10 µM. Further, the Emax at hCB1 [1] (setting [10]) was found to be 60%; at hCB1 [1] (setting [11]) it was 71%; on CB2 [2], 0%; on hCB1 [3] (setting [14]), 0%; at hCB1 [3] (setting [15]), 0%; at CB2 [4], 29%.

As to `O=[N+]([O-])CC(c1ccccc1)c1c(-c2ccccc2)[nH]c2ccccc12` (centres unmarked) [GAT211, reference compound], at hCB1 [1] (CB1, PAM mode), the “CB1 PAM mode cAMP Emax” value is reported as “(73) %”. Moreover, the “CB1 Agonist mode cAMP Emax” value at hCB1 [1] (CB1, agonist mode) is “(94) %”. On CB2 [2], the “CB2 Agonist mode β-Arrestin Emax” value was found to be 0% and the EC50 was over 10 µM. Besides, the “CB1 PAM mode β-Arrestin Emax” value on hCB1 [3] (CB1, PAM mode) is recorded as “(59) %”. In addition, the “CB1 Agonist mode β-Arrestin Emax” value at hCB1 [3] (CB1, agonist mode) is “(14) %”. On CB2 [4], the “CB2 Agonist mode cAMP Emax” value is “(0) %” and the EC50 was over 10 µM.

Regarding `O=C(O)CCC(c1ccccc1)c1cn(-c2cccnc2)c2ccccc12` (centres unmarked) [Compound 22, 4-Phenyl-4-(1-(pyridin-3-yl)-1H-indol-3-yl)butanoic acid], the EC50 at hCB1 [1] (setting [8]) is 1 µM; on hCB1 [1] (setting [9]) it was 0.831 µM; at CB2 [2] it was over 10 µM; on hCB1 [3] (setting [12]), over 10 µM; at hCB1 [3] (setting [13]) it was over 10 µM; on CB2 [4], 0.731 µM. Also, the Emax at hCB1 [1] (setting [10]) amounted to 87%; at hCB1 [1] (setting [11]), 109%; on CB2 [2], 0%; on hCB1 [3] (setting [14]) it was 0%; at hCB1 [3] (setting [15]), 0%; on CB2 [4], 68%.

`CC(=O)CC(C)C(c1ccccc1)c1cn(-c2ccccc2)c2ccccc12` (centres unmarked) [Compound 41, 4-Methyl-5-phenyl-5-(1-phenyl-1H-indol-3-yl)pentan-2-one]: the EC50 at hCB1 [1] (setting [8]), on hCB1 [1] (setting [9]), at CB2 [2], at hCB1 [3] (setting [12]), at hCB1 [3] (setting [13]) and on CB2 [4] was over 10 µM each time. The Emax on hCB1 [1] (setting [10]), on hCB1 [1] (setting [11]), at CB2 [2], on hCB1 [3] (setting [14]) and on hCB1 [3] (setting [15]) was 0% in each case. In addition, the “CB2 Agonist mode cAMP Emax” value on CB2 [4] is “(34) %”.

For `O=C(O)CCC(c1ccccc1)c1cn(Cc2ccccc2)c2ccccc12` (centres unmarked) [Compound 18, 4-(1-Penzyl-1H-indol-3-yl)-4-phenylbutanoic acid], the EC50 on hCB1 [1] (setting [8]) is 0.61 µM; on hCB1 [1] (setting [9]), 1.04 µM; at CB2 [2] it was over 10 µM; on hCB1 [3] (setting [12]) it was over 10 µM; on hCB1 [3] (setting [13]) it was over 10 µM; at CB2 [4], 0.407 µM. Further, the Emax amounted to 87% at hCB1 [1] (setting [10]); 97% on hCB1 [1] (setting [11]); 0% at CB2 [2]; 0% at hCB1 [3] (setting [14]); 0% at hCB1 [3] (setting [15]); 64% on CB2 [4].
